Assay results taken from US20240158369A1, “PYRIMIDINE COMPOUND AS WEE-1 INHIBITOR” (WIGEN BIOMEDICINE TECHNOLOGY (SHANGHAI) CO., LTD., priority 2021, published 2024).
Where two headings read alike, the source gives them in different places.

Columns and labels:
[1] = biological target: recombinant protein Wee-1 (Homo sapiens (Human), UniProt P30291); experiment: HTRF assay for inhibiting enzymatic activity of recombinant protein Wee-1; assay type: biochemical; conditions: compounds up to 200 nM, read-out: (IC50) Inhibitory activity against recombinant protein Wee-1
Sequence of recombinant protein Wee-1 (P30291 whole entry): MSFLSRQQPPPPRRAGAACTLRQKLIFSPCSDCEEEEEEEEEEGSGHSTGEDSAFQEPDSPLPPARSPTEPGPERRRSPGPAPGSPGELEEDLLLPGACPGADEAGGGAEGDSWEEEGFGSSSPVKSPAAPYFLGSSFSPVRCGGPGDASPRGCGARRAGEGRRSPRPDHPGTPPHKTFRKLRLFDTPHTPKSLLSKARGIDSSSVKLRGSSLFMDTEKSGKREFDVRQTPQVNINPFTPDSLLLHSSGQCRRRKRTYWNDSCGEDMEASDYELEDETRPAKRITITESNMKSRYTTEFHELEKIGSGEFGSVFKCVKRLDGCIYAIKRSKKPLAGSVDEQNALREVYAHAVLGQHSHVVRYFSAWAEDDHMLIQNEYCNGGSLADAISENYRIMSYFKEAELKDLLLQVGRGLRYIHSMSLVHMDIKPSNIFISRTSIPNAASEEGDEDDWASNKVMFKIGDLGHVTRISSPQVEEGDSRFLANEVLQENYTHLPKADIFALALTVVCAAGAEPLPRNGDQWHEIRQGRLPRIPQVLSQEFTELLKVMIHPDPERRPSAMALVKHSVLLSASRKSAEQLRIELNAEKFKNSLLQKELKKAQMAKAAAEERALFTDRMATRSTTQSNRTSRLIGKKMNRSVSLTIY
Procedure: The inhibitory effect of the compounds on the enzyme activity of recombinant protein Wee-1 was determined by HTRF. The procedures are as follows:
After DMSO or serially diluted compounds (up to 200 nM, 1:5 diluted) and recombinant proteins were co-incubated in a kinase buffer at 37° C. for 30 min before Fluorescein-PolyGAT and ATP were added, and the reaction was initiated by addition of a substrate. After incubation at room temperature for 90 min, an antibody and a detection solution were added, and after further incubation at room temperature for 60 min, fluorescence values were detected (excitation wavelength: 340 nm, emission wavelengths: 495 and 520 nm). The 520 nm/495 nm fluorescence intensity ratio value was calculated, and compared with that of the DMSO group, and then the inhibition percentages and IC50 values of the compounds were calculated.

MIA PaCa-2 cells = experiment: In-vitro anti-proliferative activity in combination with gemcitabine on MIA PaCa-2 cells; assay type: cell-based; conditions: 72 h
Procedure: MIA PaCa-2 cells were seeded on a 384-well plate at 3000 cells/well, and 20 nM or 200 nM gemcitabine (GMC) was added. After overnight adherence culture, DMSO or the compounds serially 1:5-diluted from 100 nM were added. The viability was assessed 72 h after dosing by measuring the intracellular ATP content. The inhibition percentage of viable cells by the compounds was calculated by comparing with the DMSO group, and the IC50 value was calculated.

[2] = test system: HT29 subcutaneous xenograft tumor; experiment: Mouse HT29 subcutaneous xenograft tumor model (Example 165), with 30 mg/kg gemcitabine; assay type: in vivo; conditions: 30 mg/kg orally once a day in combination with 30 mg/kg of gemcitabine ip once a week; for TGI: day 20
Procedure: HT29 is a colon cancer cell. Each nude mouse was grafted subcutaneously with 5×10^6HT29 cells. When the tumor grew to 100-200 mm^3, the compound was administered orally once a day in combination with 30 mg/kg of gemcitabine injected intraperitoneally once a week, and the tumor volume was measured twice a week and at the end of treatment. Tumor growth inhibition of the compound was calculated according to the following equation: tumor growth inhibition (TGI)=1−(tumor volume on day 20 in treatment group−tumor volume on day 1 in treatment group)/(tumor volume on day 20 in vehicle control group−tumor volume on day 1 in treatment group).

[3] = test system: HT29 subcutaneous xenograft tumor; experiment: Mouse HT29 subcutaneous xenograft tumor model (Example 164), alone or with 15 mg/kg gemcitabine; assay type: in vivo
Procedure: HT29 is a colon cancer cell. Each nude mouse was grafted subcutaneously with 5×10^6HT29 cells. When the tumor grew to 100-200 mm^3, the compound was administered orally once a day alone or in combination with 15 mg/kg of gemcitabine injected intraperitoneally once a week, and the tumor volume was measured twice a week and at the end of treatment. Tumor growth inhibition of the compound was calculated according to the following equation: tumor growth inhibition (TGI)=1−(tumor volume on day 20 in treatment group−tumor volume on day 1 in treatment group)/(tumor volume on day 20 in vehicle control group−tumor volume on day 1 in treatment group).

[4] = with 20 nM gemcitabine, read-out: in combination with 20 nM GMC IC50
[5] = with 200 nM gemcitabine, read-out: in combination with 200 nM GMC IC50
[6] = 30 mg/kg orally once a day in combination with 15 mg/kg of gemcitabine ip once a week, day 1
[7] = 30 mg/kg orally once a day in combination with 15 mg/kg of gemcitabine ip once a week, day 20
[8] = monotherapy, 30 mg/kg orally once a day, nude mouse HT29, day 1
[9] = monotherapy, 30 mg/kg orally once a day, nude mouse HT29, day 20

CN1CCc2c(cc(Nc3ncc(C#N)c(Nc4cccc(N=S(C)(C)=O)n4)n3)cc2C2CCC2)C1 [Compound 97]
IC50 [1]: ≤ 10 nM | IC50 (MIA PaCa-2 cells; [4]): 1.6 nM | Tumor volume on day 20 of treatment (mm^3) [2]: 278 mm^3 | TGI [2]: 88%

CN1CCc2c(cc(Nc3ncc(C#N)c(Nc4cccc(N=S(C)(C)=O)n4)n3)cc2C2CCOCC2)C1 [Compound 117]
IC50 [1]: ≤ 10 nM | IC50 (MIA PaCa-2 cells; [4]): 1.5 nM | Tumor volume on day 20 of treatment (mm^3) [2]: 283 mm^3 | TGI [2]: 87%

CCc1cc(Nc2ncc(C#N)c(Nc3cccc(N=S(C)(C)=O)n3)n2)cc2c1CCN(C)C2 [Compound 13]
IC50 [1]: ≤ 10 nM | IC50 (MIA PaCa-2 cells; [5]): 1 nM | Tumor volume on day 1 of treatment (mm^3) [3, 6]: 102 mm^3 | TGI [3, 7]: 109% | Tumor volume on day 20 of treatment (mm^3) [3, 7]: 14 mm^3 | Tumor volume on day 1 of treatment (mm^3) [3, 8]: 102 mm^3 | TGI [3, 9]: 97% | Tumor volume on day 20 of treatment (mm^3) [3, 9]: 129 mm^3

CCN1CCc2c(cc(Nc3ncc(C#N)c(Nc4cccc(N=S(C)(C)=O)n4)n3)cc2C2CC2)C1 [Compound 137]
IC50 [1]: ≤ 10 nM | IC50 (MIA PaCa-2 cells; [4]): 3.3 nM | Tumor volume on day 1 of treatment (mm^3) [3, 6]: 102 mm^3 | TGI [3, 7]: 100% | Tumor volume on day 20 of treatment (mm^3) [3, 7]: 97 mm^3 | Tumor volume on day 1 of treatment (mm^3) [3, 8]: 102 mm^3 | TGI [3, 9]: 51% | Tumor volume on day 20 of treatment (mm^3) [3, 9]: 573 mm^3

CN1CCc2c(I)cc(Nc3ncc(C#N)c(Nc4cccc(N=S(C)(C)=O)n4)n3)cc2C1 [Compound 28]
IC50 [1]: ≤ 10 nM | IC50 (MIA PaCa-2 cells; [4]): 14.5 nM

CN(C)C1Cc2ccc(Nc3ncc(C#N)c(Nc4cccc(N=S(C)(C)=O)n4)n3)cc2C1 (stereo not shown) [Compound 60]
IC50 [1]: ≤ 10 nM | IC50 (MIA PaCa-2 cells; [4]): 10.3 nM

CN(C)C1CCc2ccc(Nc3ncc(C#N)c(Nc4cccc(N=S(C)(C)=O)n4)n3)cc2CC1 (stereo not shown) [Compound 52]
IC50 [1]: ≤ 10 nM | IC50 (MIA PaCa-2 cells; [4]): 4.5 nM

CN1CCc2ccc(Nc3ncc(C#N)c(-c4c[nH]c5c(N=S(C)(C)=O)cccc45)n3)cc2C1 [Compound 78]
IC50 [1]: ≤ 10 nM | IC50 (MIA PaCa-2 cells; [4]): > 100 nM

CN1CCN(c2cccc(Nc3ncc(C#N)c(Nc4cccc(N=S(C)(C)=O)n4)n3)c2)CC1 [Compound 63]
IC50 [1]: ≤ 10 nM | IC50 (MIA PaCa-2 cells; [4]): 18.4 nM

Cc1cc(Nc2ncc(C#N)c(Nc3cccc(N=S(C)(C)=O)n3)n2)ccc1N1CCN(C)CC1 [Compound 153]
IC50 [1]: ≤ 10 nM | IC50 (MIA PaCa-2 cells; [4]): 3.5 nM

CN1CCc2ccc(Nc3ncc(Br)c(Nc4cccc(N=S(C)(C)=O)n4)n3)cc2C1 [Compound 11]
IC50 [1]: ≤ 10 nM | IC50 (MIA PaCa-2 cells; [4]): 16 nM

CN(C)Cc1cc(Nc2ncc(C#N)c(Nc3cccc(N=S(C)(C)=O)n3)n2)cc2c1CCN(C)C2 [Compound 130]
IC50 [1]: ≤ 10 nM | IC50 (MIA PaCa-2 cells; [4]): 10 nM

Cc1cc(Nc2ncc(C#N)c(Nc3cccc(N=S(C)(C)=O)n3)n2)cc(C2CC2)c1N1CCN(C)CC1 [Compound 156]
IC50 [1]: ≤ 10 nM | IC50 (MIA PaCa-2 cells; [4]): 6 nM

CN1CCc2ccc(Nc3ncc(C#N)c(Nc4cccc(N=S(C)(C)=O)n4)n3)cc2CC1 [Compound 55]
IC50 [1]: ≤ 10 nM | IC50 (MIA PaCa-2 cells; [4]): 11.3 nM

CN1CCc2ccc(Nc3ncc(C(=O)N(C)C)c(Nc4cccc(N=S(C)(C)=O)n4)n3)cc2C1 [Compound 8]
IC50 [1]: > 50 nM | IC50 (MIA PaCa-2 cells; [4]): > 100 nM

CC(C)Cc1cc(Nc2ncc(C#N)c(Nc3cccc(N=S(C)(C)=O)n3)n2)cc2c1CCN(C)C2 [Compound 87]
IC50 (MIA PaCa-2 cells; [4]): 1.8 nM | Tumor volume on day 20 of treatment (mm^3) [2]: 395 mm^3 | TGI [2]: 79%

CN1CCc2c(F)cc(Nc3ncc(C#N)c(Nc4cccc(N=S(C)(C)=O)n4)n3)cc2C1 [Compound 25]
IC50 [1]: ≤ 10 nM | IC50 (MIA PaCa-2 cells; [4]): 18.6 nM

Cc1cc(Nc2ncc(C#N)c(Nc3cccc(N=S(C)(C)=O)n3)n2)cc(C)c1N1CCN(C)CC1 [Compound 154]
IC50 [1]: ≤ 10 nM | IC50 (MIA PaCa-2 cells; [4]): 2.4 nM

COCc1cc(Nc2ncc(C#N)c(Nc3cccc(N=S(C)(C)=O)n3)n2)cc2c1CCN(C)C2 [Compound 124]
IC50 [1]: ≤ 10 nM | IC50 (MIA PaCa-2 cells; [4]): 2.7 nM

CN1CCc2c(cc(Nc3ncc(C#N)c(Nc4ccccc4N=S(C)(C)=O)n3)cc2C2CC2)C1 [Compound 150]
IC50 [1]: 10 to 50 nM | IC50 (MIA PaCa-2 cells; [4]): 3.5 nM

CNC(=O)c1cnc(Nc2ccc3c(c2)CN(C)CC3)nc1Nc1cccc(N=S(C)(C)=O)n1 [Compound 7]
IC50 [1]: > 50 nM | IC50 (MIA PaCa-2 cells; [4]): > 100 nM

CN1CCN(c2cc(Nc3ncc(C#N)c(Nc4cccc(N=S(C)(C)=O)n4)n3)cc3c2CCN(C)C3)CC1 [Compound 119]
IC50 [1]: ≤ 10 nM | IC50 (MIA PaCa-2 cells; [4]): 2.6 nM

C[C@@H]1CN(c2cc(Nc3ncc(C#N)c(Nc4cccc(N=S(C)(C)=O)n4)n3)cc3c2CCN(C)C3)C[C@H](C)O1 [Compound 127]
IC50 [1]: ≤ 10 nM | IC50 (MIA PaCa-2 cells; [4]): 8.2 nM

CN1CCc2c(cc(Nc3ncc(C#N)c(Nc4cccc(N=S(C)(C)=O)n4)n3)cc2C2CC2)C1 [Compound 16]
IC50 [1]: ≤ 10 nM | IC50 (MIA PaCa-2 cells; [5]): 1 nM | Tumor volume on day 1 of treatment (mm^3) [3, 6]: 102 mm^3 | TGI [3, 7]: 104% | Tumor volume on day 20 of treatment (mm^3) [3, 7]: 58 mm^3 | Tumor volume on day 1 of treatment (mm^3) [3, 8]: 102 mm^3 | TGI [3, 9]: 79% | Tumor volume on day 20 of treatment (mm^3) [3, 9]: 307 mm^3

CN1CCc2ccc(Nc3ncc(C#N)c(Oc4cccc(N=S(C)(C)=O)n4)n3)cc2C1 [Compound 106]
IC50 [1]: ≤ 10 nM | IC50 (MIA PaCa-2 cells; [4]): > 100 nM

CN1CCC(N2CCN(c3ccc(Nc4ncc(C#N)c(Nc5cccc(N=S(C)(C)=O)n5)n4)cc3)CC2)CC1 [Compound 62]
IC50 [1]: ≤ 10 nM | IC50 (MIA PaCa-2 cells; [4]): 12.5 nM

CS(C)(=O)=Nc1cccc(Nc2nc(Nc3cc4c(c(C5CC5)c3)CCNC4)ncc2C#N)n1 [Compound 148]
IC50 [1]: ≤ 10 nM | IC50 (MIA PaCa-2 cells; [4]): 2.1 nM

COC1CCN(c2cc(Nc3ncc(C#N)c(Nc4cccc(N=S(C)(C)=O)n4)n3)cc3c2CCN(C)C3)CC1 [Compound 120]
IC50 [1]: ≤ 10 nM | IC50 (MIA PaCa-2 cells; [4]): 4.5 nM

CN1CCc2ccc(Nc3ncc(I)c(Nc4cccc(N=S(C)(C)=O)n4)n3)cc2C1 [Compound 105]
IC50 [1]: ≤ 10 nM | IC50 (MIA PaCa-2 cells; [4]): 26.5 nM

CN1CCc2c(cc(Nc3ncc(C#N)c(Nc4cccc(N=S(C)(C)=O)n4)n3)cc2-c2ccn(C)n2)C1 [Compound 113]
IC50 [1]: ≤ 10 nM | IC50 (MIA PaCa-2 cells; [4]): 11.7 nM

CN1CCN(c2ccc(Nc3ncc(C#N)c(Nc4cccc(N=S(C)(C)=O)n4)n3)cc2C2CC2)CC1 [Compound 155]
IC50 [1]: ≤ 10 nM | IC50 (MIA PaCa-2 cells; [4]): 5.4 nM

C=Cc1cc(N=S(C)(C)=O)nc(Nc2nc(Nc3ccc4c(c3)CN(C)CC4)ncc2C#N)c1 [Compound 85]
IC50 [1]: ≤ 10 nM | IC50 (MIA PaCa-2 cells; [5]): > 100 nM

CN1CCc2c(CO)cc(Nc3ncc(C#N)c(Nc4cccc(N=S(C)(C)=O)n4)n3)cc2C1 [Compound 131]
IC50 [1]: ≤ 10 nM | IC50 (MIA PaCa-2 cells; [4]): 6.7 nM

CN1CCc2c(cc(Nc3ncc(C#N)c(Nc4cccc(N=S(C)(C)=O)n4)n3)cc2CN2CCOCC2)C1 [Compound 121]
IC50 [1]: ≤ 10 nM | IC50 (MIA PaCa-2 cells; [4]): 113 nM
